pEC50: −log10 of the molar value. Some results are limits rather than exact numbers.

T1 sequence (P43220 24-463): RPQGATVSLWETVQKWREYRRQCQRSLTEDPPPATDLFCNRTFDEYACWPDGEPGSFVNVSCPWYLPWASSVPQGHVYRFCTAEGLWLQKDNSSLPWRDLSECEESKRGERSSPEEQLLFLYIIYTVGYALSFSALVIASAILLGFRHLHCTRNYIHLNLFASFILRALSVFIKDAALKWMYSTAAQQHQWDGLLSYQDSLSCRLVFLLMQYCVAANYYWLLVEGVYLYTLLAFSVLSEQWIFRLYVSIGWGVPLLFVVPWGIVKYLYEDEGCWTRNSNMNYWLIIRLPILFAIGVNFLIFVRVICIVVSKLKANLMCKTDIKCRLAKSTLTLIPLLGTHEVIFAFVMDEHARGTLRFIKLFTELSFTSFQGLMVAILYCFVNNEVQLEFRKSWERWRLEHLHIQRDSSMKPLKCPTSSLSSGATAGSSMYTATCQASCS
T1 sequence (P01275 100-127 partner limits assumed): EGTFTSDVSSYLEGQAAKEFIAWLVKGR

This experiment has as its target T1, GLP-1R (Homo sapiens, UniProt P43220).
T1 construct: host or cells: GLP-1R CRE-bla CHO-K1 cells
The experiment can be described thus: EC20 GLP-1(9-36) PAM cAMP assay: dose response of compound in the presence of fixed concentration of GLP-1(9-36). The following applies: dose response of compound in presence of fixed concentration of GLP-1(9-36), GLP-1R CRE-bla CHO-K1 cells, read-out: EC20 GLP-1(9-36) PAM EC50. In kind it is cell-based. Summed up: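 Positive allosteric modulation read as cAMP accumulation: compound titrations (12 points) combined with an EC20 level of GLP-1(9-36) on CHO-K1 GLP-1R CRE-bla cells, IBMX present, 30 min, 37 °C, pH 7.4 buffer. Luminescence converted to cAMP via standards; non-linear fit gave EC50 and Emax.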
(Changes in cAMP serve as a functional read-out for many G protein-coupled receptors.)
Consider `CCCCCCCOc1ccc(-c2cnc(-c3ccc(C[C@H](NC(=O)c4ccc(C(C)(C)C)cc4OCC)C(=O)N4CC(C(=O)O)C4)cc3)nc2)cc1` [Compound 1100], for which the pEC50 (commonly the negative decadic logarithm of the EC50, by convention in mol/L) was 5.30 to 5.60. In the case of `CCCCCCCOc1ccc(-c2cnc(-c3ccc(C[C@H](NC(=O)c4oc(C(C)(C)C)cc4C)C(=O)N4CC(C(=O)O)C4)cc3)nc2)cc1` [Compound 1101] it was 5.60 to 6.10; in that of `CCCCCCCOc1ccc(-c2cnc(-c3ccc(C[C@H](NC(=O)Cc4ccc(OCCCC)cc4)C(=O)N4CC(C(=O)O)C4)cc3)nc2)cc1` [Compound 1102], 5.60 to 6.10; in that of `CCCCCCCOc1ccc(-c2cnc(-c3ccc(C[C@H](NC(=O)/C=C/c4ccc(OC)cc4)C(=O)N4CC(C(=O)O)C4)cc3)nc2)cc1` [Compound 1103], 5.60 to 6.10. In the case of `CCCCCCCOc1ccc(-c2cnc(-c3ccc(C[C@H](NC(=O)c4ccc(O)c(F)c4)C(=O)N4CC(C(=O)O)C4)cc3)nc2)cc1` [Compound 1104] it was 5.60 to 6.10; in that of `CCCCCCCOc1ccc(-c2cnc(-c3ccc(C[C@H](NC(=O)c4ccc(OCCC)cc4)C(=O)N4CC(C(=O)O)C4)cc3)nc2)cc1` [Compound 1105], 5.30 to 5.60; in that of `CCCCCCCOc1ccc(-c2cnc(-c3ccc(C[C@H](NC(=O)c4ccc(CC)cn4)C(=O)N4CC(C(=O)O)C4)cc3)nc2)cc1` [Compound 1106], 5.30 to 5.60. In the case of `CCCCCCCOc1ccc(-c2cnc(-c3ccc(C[C@H](NC(=O)c4ccc(CCC)s4)C(=O)N4CC(C(=O)O)C4)cc3)nc2)cc1` [Compound 1107] it was 5.60 to 6.10; in that of `CCCCCCCOc1ccc(-c2cnc(-c3ccc(C[C@H](NC(=O)c4ccc(CC)cc4)C(=O)N4CC(C(=O)O)C4)cc3)nc2)cc1` [Compound 1108], > 6.10; in that of `CCCCCCCOc1ccc(-c2cnc(-c3ccc(C[C@H](NC(=O)c4ccc(OC)cc4)C(=O)N4CC(C(=O)O)C4)cc3)nc2)cc1` [Compound 1109], 5.60 to 6.10. Turning to `CCCCCCCOc1ccc(-c2cnc(-c3ccc(C[C@H](NC(=O)c4ccc(CC)s4)C(=O)N4CC(C(=O)O)C4)cc3)nc2)cc1` [Compound 1110], the negative-log EC50 (pEC50) was 5.60 to 6.10.

On to `CCCCCCCOc1ccc(-c2cnc(-c3ccc(C[C@H](NC(=O)c4ccc(C5CC5)cc4)C(=O)N4CC(C(=O)O)C4)cc3)nc2)cc1` [Compound 1111], for which the negative logarithm of the EC50 (pEC50) is 5.60 to 6.10. For `CCCCCCCOc1ccc(-c2cnc(-c3ccc(C[C@H](NC(=O)c4ccc(CCC)cc4)C(=O)N4CC(C(=O)O)C4)cc3)nc2)cc1` [Compound 1112], the pEC50 is 5.60 to 6.10. For `CCCCCCCOc1ccc(-c2cnc(-c3ccc(C[C@H](NC(=O)c4ccc(C(C)C)cc4)C(=O)N4CC(C(=O)O)C4)cc3)nc2)cc1` [Compound 1113], the pEC50 was 5.60 to 6.10. Regarding `CCCCCCCOc1ccc(-c2cnc(-c3ccc(C[C@H](NC(=O)c4ccc(OCC)cc4)C(=O)N4CC(C(=O)O)C4)cc3)nc2)cc1` [Compound 1114], the pEC50 was 5.60 to 6.10. As to `CCCCCCCOc1ccc(-c2cnc(-c3ccc(C[C@H](NC(=O)c4ccc(CCCC)cc4)C(=O)N4CC(C(=O)O)C4)cc3)nc2)cc1` [Compound 1115], the negative-log EC50 (pEC50) is 5.60 to 6.10.

On to `CCCCCCCOc1ccc(-c2cnc(-c3ccc(C[C@H](NC(=O)c4ccc(CC(C)C)cc4)C(=O)N4CC(C(=O)O)C4)cc3)nc2)cc1` [Compound 1116], for which the pEC50 was 5.60 to 6.10.

With `CCCCCCCOc1ccc(-c2cnc(-c3ccc(C[C@H](NC(=O)c4ccc(C(C)(C)C)nc4)C(=O)N4CC(C(=O)O)C4)cc3)nc2)cc1` [Compound 1117], the pEC50 is 5.60 to 6.10. In the case of `CCCCCCCOc1ccc(-c2cnc(-c3ccc(C[C@H](NC(=O)c4cnc(C(C)(C)C)nc4)C(=O)N4CC(C(=O)O)C4)cc3)nc2)cc1` [Compound 1118], the pEC50 was 5.60 to 6.10. In the case of `CCCCCCCOc1ccc(-c2cnc(-c3ccc(C[C@H](NC(=O)c4ccc(CC(C)C)s4)C(=O)N4CC(C(=O)O)C4)cc3)nc2)cc1` [Compound 1119] it was 5.60 to 6.10; in that of `CCCCCCCOc1ccc(-c2cnc(-c3ccc(C[C@H](NC(=O)c4ccc(C(C)(C)C)c(OC)c4)C(=O)N4CC(C(=O)O)C4)cc3)nc2)cc1` [Compound 1120], 5.30 to 5.60. Take `CCCCCCCOc1ccc(-c2cnc(-c3ccc(C[C@H](NC(=O)c4ccc(C(C)(C)CC)cc4)C(=O)N4CC(C(=O)O)C4)cc3)nc2)cc1` [Compound 1121]: the pEC50 is 5.60 to 6.10. With `CCCCCCCOc1ccc(-c2cnc(-c3ccc(C[C@H](NC(=O)c4cccc(C(C)(C)C)c4)C(=O)N4CC(C(=O)O)C4)cc3)nc2)cc1` [Compound 1122], the negative-log EC50 (pEC50) was 5.00 to 5.30. In the case of `CC(C)(C)c1ccc(C(=O)N[C@@H](Cc2ccc(-c3ncc(-c4ccc(C5CCCC5)cc4)cn3)cc2)C(=O)N2CCC[C@H]2C(=O)O)s1` [Compound 1123], the negative-log EC50 (pEC50) was 5.60 to 6.10.

`CC(C)(C)c1ccc(C(=O)N[C@@H](Cc2ccc(-c3ncc(-c4ccc(-c5ccccc5)cc4)cn3)cc2)C(=O)N2CCC[C@H]2C(=O)O)s1` [Compound 1124]: the negative-log EC50 (pEC50) is > 6.10. The same measure for `Cc1ccc(/C=C/c2cnc(-c3ccc(C[C@H](NC(=O)c4ccc(C(C)(C)C)s4)C(=O)N4CCC[C@H]4C(=O)O)cc3)nc2)cc1` [Compound 1125]: 5.60 to 6.10.

Regarding `CCc1ccc(/C=C/c2cnc(-c3ccc(C[C@H](NC(=O)c4ccc(C(C)(C)C)s4)C(=O)N4CCC[C@H]4C(=O)O)cc3)nc2)cc1` [Compound 1126], the pEC50 was 5.60 to 6.10. In the case of `Cc1cc(-c2cnc(-c3ccc(C[C@H](NC(=O)c4ccc(C(C)(C)C)s4)C(=O)N4CCC[C@H]4C(=O)O)cc3)nc2)ccc1OC(C)C` [Compound 1127] it was 5.60 to 6.10. In the case of `CC[C@H]1CC[C@H](c2ccc(-c3cnc(-c4ccc(C[C@H](NC(=O)c5ccc(C(C)(C)C)s5)C(=O)N5CCC[C@H]5C(=O)O)cc4)nc3)cc2)CC1` [Compound 1128, ((S)-2-(5-(tert-butyl)thiophene-2-carboxamido)-3-(4-(5-(4-((1r,4r)-4-ethylcyclohexyl)phenyl)pyrimidin-2-yl)phenyl)propanoyl)-L-proline] it was > 6.10; in that of `Cc1cc(-c2cnc(-c3ccc(C[C@H](NC(=O)c4ccc(C(C)(C)C)s4)C(=O)N[C@H](C)C(=O)O)cc3)nc2)ccc1-c1ccccc1` [Compound 1129], 5.60 to 6.10.

Consider `CCOC1CC(c2ccc(-c3cnc(-c4ccc(C[C@H](NC(=O)c5ccc(C(C)(C)C)s5)C(=O)N[C@H](C)C(=O)O)cc4)nc3)cc2)C1` (stereo partly drawn) [Compound 1130], for which the pEC50 is 5.60 to 6.10. Regarding `Cc1cc(-c2ccccc2)ccc1-c1cnc(-c2ccc(C[C@H](NC(=O)c3ccc(C(C)(C)C)s3)C(=O)N[C@H](C)C(=O)O)cc2)nc1` [Compound 1131], the negative logarithm of the EC50 (pEC50) was 5.60 to 6.10. As to `C[C@@H](NC(=O)[C@H](Cc1ccc(-c2ncc(-c3ncc(-c4ccccc4)cn3)cn2)cc1)NC(=O)c1ccc(C(C)(C)C)s1)C(=O)O` [Compound 1132], the pEC50 was 5.60 to 6.10.

Regarding `C[C@@H](NC(=O)[C@H](Cc1ccc(-c2ncc(-c3ccc(-c4ccccc4F)cc3)cn2)cc1)NC(=O)c1ccc(C(C)(C)C)s1)C(=O)O` [Compound 1133], the negative logarithm of the EC50 (pEC50) was > 6.10. Turning to `C[C@@H](NC(=O)[C@H](Cc1ccc(-c2ncc(-c3ccc(-c4cccc(F)c4)cc3)cn2)cc1)NC(=O)c1ccc(C(C)(C)C)s1)C(=O)O` [Compound 1134], the negative-log EC50 (pEC50) is 5.60 to 6.10. `CCCCc1ccc(-c2ccc(-c3cnc(-c4ccc(C[C@H](NC(=O)c5ccc(C(C)(C)C)s5)C(=O)N[C@H](C)C(=O)O)cc4)nc3)cc2)cc1` [Compound 1135]: the pEC50 was 5.60 to 6.10. With `CCCc1ccc(-c2ccc(-c3cnc(-c4ccc(C[C@H](NC(=O)c5ccc(C(C)(C)C)s5)C(=O)N[C@H](C)C(=O)O)cc4)nc3)cc2)cc1` [Compound 1136], the negative logarithm of the EC50 (pEC50) is 5.60 to 6.10. Turning to `CC[C@H]1CC[C@H](c2ccc(-c3cnc(-c4ccc(C[C@H](NC(=O)c5ccc(C(C)(C)C)s5)C(=O)N5CC[C@H](C(=O)O)C5)cc4)nc3)cc2)CC1` [Compound 1137], the pEC50 was > 6.10.

On to `Cc1ccc(-c2ccc(-c3cnc(-c4ccc(C[C@H](NC(=O)c5ccc(C(C)(C)C)s5)C(=O)N[C@H](C)C(=O)O)cc4)nc3)cc2)cc1C` [Compound 1138], for which the pEC50 was > 6.10. Consider `Cc1ccc(-c2ccc(-c3cnc(-c4ccc(C[C@H](NC(=O)c5ccc(C(C)(C)C)s5)C(=O)N[C@H](C)C(=O)O)cc4)nc3)cc2F)cc1` [Compound 1139], for which the negative logarithm of the EC50 (pEC50) is > 6.10.

With `C[C@@H](NC(=O)[C@H](Cc1ccc(-c2ncc(-c3ccc(-c4ccc(C(F)(F)F)cc4)c(F)c3)cn2)cc1)NC(=O)c1ccc(C(C)(C)C)s1)C(=O)O` [Compound 1140], the negative logarithm of the EC50 (pEC50) is > 6.10. For `Cc1cccc(-c2ccc(-c3cnc(-c4ccc(C[C@H](NC(=O)c5ccc(C(C)(C)C)s5)C(=O)N[C@H](C)C(=O)O)cc4)nc3)cc2F)c1` [Compound 1141], the negative logarithm of the EC50 (pEC50) was > 6.10. For `C[C@@H](NC(=O)[C@H](Cc1ccc(-c2ncc(-c3ccc(C4CCC(F)(F)CC4)cc3)cn2)cc1)NC(=O)c1ccc(C(C)(C)C)s1)C(=O)O` [Compound 1142], the negative-log EC50 (pEC50) is > 6.10. The same measure for `C[C@@H](NC(=O)[C@H](Cc1ccc(-c2ncc(-c3ccc([C@H]4CC[C@H](C(C)(C)C)CC4)cc3)cn2)cc1)NC(=O)c1ccc(C(C)(C)C)s1)C(=O)O` [Compound 1143]: > 6.10; for `C[C@@H](NC(=O)[C@H](Cc1ccc(-c2ncc(-c3ccc([C@H]4CC[C@@H](C(C)(C)C)CC4)cc3)cn2)cc1)NC(=O)c1ccc(C(C)(C)C)s1)C(=O)O` [Compound 1144]: 5.60 to 6.10.

Regarding `CC1CCC(c2ccc(-c3cnc(-c4ccc(C[C@H](NC(=O)c5ccc(C(C)(C)C)s5)C(=O)N[C@H](C)C(=O)O)cc4)nc3)cc2)CC1` (stereo partly drawn) [Compound 1145], the negative-log EC50 (pEC50) was > 6.10.

For `C[C@@H](NC(=O)[C@H](Cc1ccc(-c2ncc(-c3ccc(-c4ccc(OC(F)(F)F)cc4F)cc3)cn2)cc1)NC(=O)c1ccc(C(C)(C)C)s1)C(=O)O` [Compound 1146], the pEC50 is > 6.10. For `C[C@@H](NC(=O)[C@H](Cc1ccc(-c2ncc(-c3ccc(-c4ccc(C(F)(F)F)cc4F)cc3)cn2)cc1)NC(=O)c1ccc(C(C)(C)C)s1)C(=O)O` [Compound 1147], the pEC50 was > 6.10.

The values above are taken from patent US10034886B2, “GLP-1 receptor modulators” (Celgene International II SÀRL, priority 2014, dated 2018).
